In the assay the target is human PAD4 (Homo sapiens (Human), UniProt Q9UM07). Kind of assay: In Vitro PAD4 BAEE Biochemical Assay. Conditions: geometric mean of multiple experiments. The procedure, abridged: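 Deimination of BAEE substrate (3 mM) measured as ammonia via o-phthalaldehyde–DTT isoindole fluorescence, 405/535 nm. Tag-free bacterially expressed human PAD4 at 5 nM with 2 mM calcium chloride, pH 7.6 MOPS buffer, 30 min compound preincubation then 2 h reaction, both at 25 °C.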

Setting [1] is: human PAD4, BAEE substrate, 5 nM PAD4, 2 mM calcium chloride, 3 mM BAEE.

Chain of human PAD4 (Q9UM07 2-663): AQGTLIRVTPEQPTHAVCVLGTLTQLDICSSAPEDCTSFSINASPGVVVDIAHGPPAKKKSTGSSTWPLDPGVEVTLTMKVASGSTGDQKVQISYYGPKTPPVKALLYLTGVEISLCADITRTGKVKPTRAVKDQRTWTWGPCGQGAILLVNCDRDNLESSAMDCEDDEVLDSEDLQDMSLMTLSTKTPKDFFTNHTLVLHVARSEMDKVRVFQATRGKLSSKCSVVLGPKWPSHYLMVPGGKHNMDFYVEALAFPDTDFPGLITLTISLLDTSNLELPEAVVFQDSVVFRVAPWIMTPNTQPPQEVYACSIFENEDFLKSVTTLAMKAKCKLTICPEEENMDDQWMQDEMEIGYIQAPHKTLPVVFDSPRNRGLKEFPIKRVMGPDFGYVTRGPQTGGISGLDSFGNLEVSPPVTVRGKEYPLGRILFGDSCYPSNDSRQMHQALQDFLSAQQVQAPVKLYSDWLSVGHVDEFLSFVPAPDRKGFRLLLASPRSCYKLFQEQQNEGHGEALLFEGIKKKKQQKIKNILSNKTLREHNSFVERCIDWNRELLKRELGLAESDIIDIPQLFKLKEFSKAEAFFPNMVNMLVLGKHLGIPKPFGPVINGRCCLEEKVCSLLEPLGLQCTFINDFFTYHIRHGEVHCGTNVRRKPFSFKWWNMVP

Consider `COc1cc(C(=O)N2CCC[C@@H](N)C2)cc2nc(-c3cc4ccc(N(CC(F)F)S(C)(=O)=O)nc4n3CC3CC3)n(C)c12` [Example 19, (R)-N-(2-(5-(3-aminopiperidine-1-carbonyl)-7-methoxy-1-methyl-1H-benzo[d]imidazol-2-yl)-1-(cyclopropylmethyl)-1H-pyrrolo [2,3-b]pyridin-6-yl)-N-(2,2-difluoroethyl) methanesulfonamide], for which, under setting [1], the IC50 (usually the midpoint of a concentration-inhibition curve) was found to be 0.181 µM. As to `COc1cc(C(=O)N2[C@H]3CC[C@@H]2[C@H](N)C3)cc2nc(-c3cc4ccc([C@@H](C)NC(=O)C(C)(C)C)nc4n3CC3CC3)n(C3CC3)c12` [Example 127, N-((R)-1-(2-(5-((1R,2R,4S)-2-amino-7-azabicyclo[2.2.1]heptane-7-carbonyl)-1-cyclopropyl-7-methoxy-1H-benzo[d]imidazol-2-yl)-1-(cyclopropylmethyl)-1H-pyrrolo[2,3-b]pyridin-6-yl)ethyl)pivalamide], under setting [1], the IC50 was determined as 0.0637 µM. Same read-out and setting: under `COc1nccc(-c2ccccc2)c1-c1ccc2cc(-c3nc4cc(C(=O)N5C[C@H](N)CC[C@@H]5C)cc(OC)c4n3C)n(CC3CC3)c2n1` [Example 277, ((2S,5R)-5-amino-2-methylpiperidin-1-yl)(2-(1-(cyclopropylmethyl)-6-(2-methoxy-4-phenylpyridin-3-yl)-1H-pyrrolo[2,3-b]pyridin-2-yl)-7-methoxy-1-methyl-1H-benzo[d]imidazol-5-yl)methanone] stands 3.43 µM; under `CCN(c1ccc2cc(-c3nc4cc(C(=O)N5CCC[C@@H](N)C5)cc(OC)c4n3C)n(CC3CC3)c2n1)S(=O)(=O)C1CC1` [Example 25, (R)-N-(2-(5-(3-aminopiperidine-1-carbonyl)-7-methoxy-1-methyl-1H-benzo[d]imidazol-2-yl)-1-(cyclopropylmethyl)-1H-pyrrolo [2,3-b]pyridin-6-yl)-N-ethylcyclopropanesulfonamide], 0.082 µM. Consider `CS(=O)(=O)N(c1ccc2cc(-c3nc4cc(C(=O)N5[C@H]6CC[C@@H]5[C@H](N)C6)ccc4n3C3CC3)n(CC3CC3)c2n1)C(F)F` [Example 65, N-(2-(5-((1R,2R,4S)-2-amino-7-azabicyclo[2.2.1]heptane-7-carbonyl)-1-cyclopropyl-1H-benzo[d]imidazol-2-yl)-1-(cyclopropylmethyl)-1H-pyrrolo[2,3-b]pyridin-6-yl)-N-(difluoromethyl) methanesulfonamide], for which, under setting [1], the IC50 is 0.047 µM. Turning to `COc1cc(C(=O)N2CCC[C@@H](N)C2)cc2nc(-c3cc4ccc(N(C(C)C)S(C)(=O)=O)nc4n3CC3CC3)n(C)c12` [Example 6, (R)-N-(2-(5-(3-aminopiperidine-1-carbonyl)-7-methoxy-1-methyl-1H-benzo[d]imidazol-2-yl)-1-(cyclopropylmethyl)-1H-pyrrolo [2,3-b]pyridin-6-yl)-N-isopropylmethanesulfonamide], the IC50 under setting [1] was determined as 0.0595 µM. For the compound `COc1cc(C(=O)N2C[C@H](N)[C@@H]3CC[C@H]2C3)cc2nc(-c3cc4ccc([C@@H](C)NC(=O)c5cnn(C(F)(F)F)c5)nc4n3CC3CC3)n(C)c12` [Example 320, N-((R)-1-(2-(5-((1S,4R,5R)-4-amino-2-azabicyclo[3.2.1]octane-2-carbonyl)-7-methoxy-1-methyl-1H-benzo[d]imidazol-2-yl)-1-(cyclopropylmethyl)-1H-pyrrolo[2,3-b]pyridin-6-yl)ethyl)-1-(trifluoromethyl)-1H-pyrazole-4-carboxamide], the IC50 (recombinant PAD4 5 nM, 2 mM calcium chloride, 3 mM BAEE substrate) came out at 0.0826 µM.

On to `COc1cc(C(=O)N2[C@H]3CC[C@@H]2[C@H](N)C3)cc2nc(-c3cc4ccc([C@@H](C)NC(=O)N5CCCC5)nc4n3CC3CC3)n(C)c12` [Example 234, N-((R)-1-(2-(5-((1R,2R,4S)-2-amino-7-azabicyclo[2.2.1]heptane-7-carbonyl)-7-methoxy-1-methyl-1H-benzo[d]imidazol-2-yl)-1-(cyclopropylmethyl)-1H-pyrrolo[2,3-b]pyridin-6-yl)ethyl)pyrrolidine-1-carboxamide], for which the IC50 under setting [1] was 0.0343 µM.

For the origin of these results see patent publication US11878965B2, “Inhibitors of peptidylarginine deiminases” (Gilead Sciences, Inc., priority 2020, dated 2024).
